Measured values reported in patent publication US20250145606A1 (Arcus Biosciences, Inc., priority 2023, published 2025).

Key:
Details in all cases: biochemical, HTRF KinEASE-TK
c-Kit = c-Kit (Homo sapiens (Human), UniProt P10721); experiment: Inhibition of c-Kit kinase activity (HTRF KinEASE-TK); type: biochemical
Description: (§1) Inhibition of c-Kit, PDGFRα, PDGFRβ, CSFIR and FLT3 Kinase Activity
(§2) Compounds were evaluated to determine the potency with which they inhibit the kinase activity of the following panel of tyrosine kinases: c-Kit (SignalChem, Product #: K06-11BG), PDGFRα (SignalChem, Product #: P12-18G), PDGFRβ (SignalChem, Product #: P13-11G), CSFIR (SignalChem, Product #: C74-11G) and FLT3 (Invitrogen, Product #: PR4666C). Activity was determined as a function of phosphorylated biotinylated TK peptide generated by the transfer of phosphate from ATP as measured by the use of the HTRF KinEASE-TK assay kit (Cisbio, Product #: 62TKOPEJ). Levels of phosphorylated biotinylated TK peptide (Part 61TKOBLC of KinEASE assay kit) are quantified by its capture by phosphor-TK-Antibody-Cryptate (Part of KinEASE assay kit) and XL665-labeled Streptavidin (Part 610SAXLG of KinEASE assay kit) followed by measurement of Time-Resolved Fluorescence Resonance Energy Transfer (TR-FRET) signal. On the day of the assay, compounds were solubilized in DMSO and dispensed into a 384-well white Opti-plate (PerkinElmer, catalog #6007290) to generate a 22 point 1:2 titration. Enzyme solution was prepared for each of the tyrosine kinases in 50 mM HEPES, pH 7.4, 5 mM MgCl2 for c-Kit or 10 mM MgCl2 for FLT3, CSFIR, PDGFRa and PDGFRβ, 2 mM MnCl2, 0.01% Brij-35 and 0.01% BSA. Working enzyme concentrations were prepared for c-Kit at 2 nM (2×), PDGFRa and PDGFRß at 10 nM (2×), CSFIR at 2 nM (2×) and FLT3 at 0.4 nM (2×). Five microliters of enzyme dilution of each tyrosine kinase were added to their respective 384-well white Opti-plate pre-dispensed with compound and allowed to incubate for 1 h at rt. Utilizing the same enzyme buffer recipe, 2x substrate mixes were prepared for each enzyme as follows: For c-Kit, 1.6 μM (2×) TK substrate and 16 μM (2×) ATP (Promega, catalog #V915). For PDGFRα, 3.2 μM TK substrate and 1 μM ATP. For PDGFRβ, 3.2 μM TK substrate and 40 μM ATP. For CSFIR, […] TK substrate and 20 μM ATP. For FLT3, 3.2 μM TK substrate and 100 μM ATP. Reactions were initiated by addition of 5 μL of the respective 2x substrate mix to each well of the plates containing the respective tyrosine kinase enzymes and were allowed to proceed for 120 minutes at rt, except for FLT3, the reaction time is 45 min. Following the reaction, 10 μL of detection mix consisting of 0.2 μM (2×) of Streptavidin-XL665 and 2 μM (2×) of TK-Antibody-Cryptate prepared in detection buffer (Part 62SDBRDF of KinEASE assay kit) was added and then allowed to incubate for 60 min. The TR-FRET signal was quantified by measuring the ratio of emission at 665 nm to 620 nm after excitation at 320 nm by reading on a PerkinElmer Envision multimode reader. Compound potencies (IC50 values) were determined using a standard 4-parameter non-linear regression fit.

PDGFRβ = PDGFRβ (Homo sapiens (Human), UniProt P09619); experiment: Inhibition of PDGFRβ kinase activity (HTRF KinEASE-TK)
PDGFRβ, sequence (P09619 33-1106): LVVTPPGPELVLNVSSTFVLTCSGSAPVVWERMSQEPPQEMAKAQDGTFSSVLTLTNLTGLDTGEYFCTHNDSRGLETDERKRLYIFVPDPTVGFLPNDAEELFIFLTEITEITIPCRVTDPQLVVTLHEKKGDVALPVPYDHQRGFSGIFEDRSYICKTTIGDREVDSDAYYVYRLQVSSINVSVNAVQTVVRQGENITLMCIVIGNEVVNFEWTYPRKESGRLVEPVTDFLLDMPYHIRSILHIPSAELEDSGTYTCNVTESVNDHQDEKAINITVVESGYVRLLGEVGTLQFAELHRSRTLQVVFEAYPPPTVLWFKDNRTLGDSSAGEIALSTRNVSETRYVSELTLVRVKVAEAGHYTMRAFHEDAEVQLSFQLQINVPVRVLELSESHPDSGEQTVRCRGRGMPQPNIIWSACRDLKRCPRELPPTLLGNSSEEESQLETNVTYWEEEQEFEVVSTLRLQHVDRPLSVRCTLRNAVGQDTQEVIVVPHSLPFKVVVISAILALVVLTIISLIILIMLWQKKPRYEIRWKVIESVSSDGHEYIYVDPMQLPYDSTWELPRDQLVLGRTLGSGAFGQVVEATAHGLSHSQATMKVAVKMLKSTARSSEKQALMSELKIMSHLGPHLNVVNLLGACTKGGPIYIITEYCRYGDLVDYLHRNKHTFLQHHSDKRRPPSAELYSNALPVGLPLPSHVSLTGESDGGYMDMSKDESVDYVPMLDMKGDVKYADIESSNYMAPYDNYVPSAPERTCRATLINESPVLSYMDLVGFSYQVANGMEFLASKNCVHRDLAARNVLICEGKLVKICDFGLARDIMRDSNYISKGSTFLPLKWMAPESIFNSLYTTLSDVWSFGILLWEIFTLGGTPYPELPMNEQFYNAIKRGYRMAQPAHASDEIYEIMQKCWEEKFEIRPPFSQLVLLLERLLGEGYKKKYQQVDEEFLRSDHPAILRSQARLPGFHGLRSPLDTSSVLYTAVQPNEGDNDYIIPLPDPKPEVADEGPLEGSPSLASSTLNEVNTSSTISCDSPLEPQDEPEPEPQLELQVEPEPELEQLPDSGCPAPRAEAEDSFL
Description: as §1, §2

PDGFRα = PDGFRα (Homo sapiens (Human), UniProt P16234); experiment: Inhibition of PDGFRα kinase activity (HTRF KinEASE-TK)
PDGFRα, sequence (P16234 24-1089): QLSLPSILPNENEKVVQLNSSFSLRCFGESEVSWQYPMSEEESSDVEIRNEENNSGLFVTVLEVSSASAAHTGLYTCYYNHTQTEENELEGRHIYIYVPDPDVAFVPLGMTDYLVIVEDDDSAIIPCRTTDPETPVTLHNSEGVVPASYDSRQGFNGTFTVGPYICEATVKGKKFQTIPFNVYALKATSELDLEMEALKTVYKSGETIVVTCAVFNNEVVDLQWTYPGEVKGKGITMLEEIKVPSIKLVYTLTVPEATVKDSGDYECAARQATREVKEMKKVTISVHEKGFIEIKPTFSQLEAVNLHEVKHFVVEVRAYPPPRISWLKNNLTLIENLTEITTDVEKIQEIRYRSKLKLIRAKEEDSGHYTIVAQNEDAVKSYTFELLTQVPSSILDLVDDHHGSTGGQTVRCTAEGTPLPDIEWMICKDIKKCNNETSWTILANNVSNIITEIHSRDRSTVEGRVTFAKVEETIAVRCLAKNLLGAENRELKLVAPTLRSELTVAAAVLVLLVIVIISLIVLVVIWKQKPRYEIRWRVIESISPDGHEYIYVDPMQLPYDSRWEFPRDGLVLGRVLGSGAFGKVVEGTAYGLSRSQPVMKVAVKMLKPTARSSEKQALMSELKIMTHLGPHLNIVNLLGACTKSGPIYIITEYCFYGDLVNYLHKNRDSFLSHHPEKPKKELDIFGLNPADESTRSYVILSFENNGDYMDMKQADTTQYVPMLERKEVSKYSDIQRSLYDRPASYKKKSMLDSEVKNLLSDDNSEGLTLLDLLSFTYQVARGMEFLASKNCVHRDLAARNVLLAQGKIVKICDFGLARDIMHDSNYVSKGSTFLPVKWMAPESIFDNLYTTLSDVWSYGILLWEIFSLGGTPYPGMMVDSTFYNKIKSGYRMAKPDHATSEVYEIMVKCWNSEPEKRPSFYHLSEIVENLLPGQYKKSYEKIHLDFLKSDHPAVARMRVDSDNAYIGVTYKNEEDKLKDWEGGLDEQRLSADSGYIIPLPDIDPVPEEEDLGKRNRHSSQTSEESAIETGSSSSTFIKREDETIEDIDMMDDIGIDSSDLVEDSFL
Description: as §1, §2

CSF1R = CSF1R (Homo sapiens (Human), UniProt P07333); experiment: Inhibition of CSF1R kinase activity (HTRF KinEASE-TK)
CSF1R, sequence (P07333 20-972): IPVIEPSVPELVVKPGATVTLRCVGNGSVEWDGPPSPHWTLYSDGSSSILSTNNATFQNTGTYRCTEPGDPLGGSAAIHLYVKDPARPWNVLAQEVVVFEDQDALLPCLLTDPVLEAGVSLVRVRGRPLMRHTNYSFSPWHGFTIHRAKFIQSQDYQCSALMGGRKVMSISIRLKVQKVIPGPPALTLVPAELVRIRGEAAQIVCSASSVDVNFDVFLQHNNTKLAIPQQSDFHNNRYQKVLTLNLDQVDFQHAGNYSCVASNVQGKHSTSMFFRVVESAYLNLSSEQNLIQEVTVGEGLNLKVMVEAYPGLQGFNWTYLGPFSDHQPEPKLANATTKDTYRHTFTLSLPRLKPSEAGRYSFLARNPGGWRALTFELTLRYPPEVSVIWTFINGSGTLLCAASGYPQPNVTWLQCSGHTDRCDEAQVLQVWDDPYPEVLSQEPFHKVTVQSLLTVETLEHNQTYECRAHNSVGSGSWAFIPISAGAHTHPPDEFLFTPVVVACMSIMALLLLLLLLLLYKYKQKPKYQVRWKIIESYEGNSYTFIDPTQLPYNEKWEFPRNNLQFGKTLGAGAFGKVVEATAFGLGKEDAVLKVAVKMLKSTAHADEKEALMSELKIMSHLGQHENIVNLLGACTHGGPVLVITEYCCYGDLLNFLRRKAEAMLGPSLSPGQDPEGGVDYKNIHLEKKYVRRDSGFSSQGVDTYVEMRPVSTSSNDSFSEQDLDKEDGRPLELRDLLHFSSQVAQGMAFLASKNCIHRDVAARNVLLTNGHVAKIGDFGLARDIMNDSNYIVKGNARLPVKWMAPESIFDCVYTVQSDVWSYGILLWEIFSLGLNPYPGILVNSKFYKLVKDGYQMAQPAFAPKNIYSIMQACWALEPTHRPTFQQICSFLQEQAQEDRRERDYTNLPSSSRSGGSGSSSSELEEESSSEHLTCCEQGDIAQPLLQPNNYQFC
Description: as §1, §2

c-Kit, sequence (P10721 26-976): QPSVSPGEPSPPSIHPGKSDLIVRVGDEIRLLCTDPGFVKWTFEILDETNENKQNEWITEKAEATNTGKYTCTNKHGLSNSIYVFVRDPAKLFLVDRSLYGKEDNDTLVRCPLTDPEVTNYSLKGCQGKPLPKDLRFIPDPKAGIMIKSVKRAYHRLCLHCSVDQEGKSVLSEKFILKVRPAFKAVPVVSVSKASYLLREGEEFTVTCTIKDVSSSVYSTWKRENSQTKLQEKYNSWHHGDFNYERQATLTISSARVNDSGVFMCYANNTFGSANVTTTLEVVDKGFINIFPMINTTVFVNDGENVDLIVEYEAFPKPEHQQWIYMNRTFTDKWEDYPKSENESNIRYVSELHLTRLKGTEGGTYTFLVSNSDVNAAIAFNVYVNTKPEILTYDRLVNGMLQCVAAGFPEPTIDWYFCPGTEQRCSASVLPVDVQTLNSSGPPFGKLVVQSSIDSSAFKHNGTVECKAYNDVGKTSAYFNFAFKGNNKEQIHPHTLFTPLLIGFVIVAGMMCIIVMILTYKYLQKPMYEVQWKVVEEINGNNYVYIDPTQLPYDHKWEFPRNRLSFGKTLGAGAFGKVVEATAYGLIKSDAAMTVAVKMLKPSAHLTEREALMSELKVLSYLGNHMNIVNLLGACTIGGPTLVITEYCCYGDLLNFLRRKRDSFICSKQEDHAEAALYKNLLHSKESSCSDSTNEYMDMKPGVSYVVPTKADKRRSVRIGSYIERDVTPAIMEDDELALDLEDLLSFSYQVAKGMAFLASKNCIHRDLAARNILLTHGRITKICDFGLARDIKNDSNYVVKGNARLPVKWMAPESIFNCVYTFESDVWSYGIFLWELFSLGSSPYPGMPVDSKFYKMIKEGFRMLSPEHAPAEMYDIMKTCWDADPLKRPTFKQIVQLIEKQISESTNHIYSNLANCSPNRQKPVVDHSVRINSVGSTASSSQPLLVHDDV

Structure (SMILES) | IC50 (c-Kit) [nM] | IC50 (PDGFRβ) [nM] | IC50 (PDGFRα) [nM] | IC50 (CSF1R) [nM]
Cc1cc(F)c(C(=O)Nc2ccc(OC3CC3)cn2)cc1NC(=O)c1cnc(NC(=O)OC2CCC2)s1 [Example 106] | < 100 | 100 to 1000 | > 1000 | > 1000
Cc1cc(F)c(C(=O)Nc2ccn(CC3CC3)n2)cc1NC(=O)c1cnc(N)s1 [Example 151, 2-Amino-N-[5-[[1-(cyclopropylmethyl)pyrazol-3-yl]carbamoyl]-4-fluoro-2-methylphenyl]-1,3-thiazole-5-carboxamide] | < 100 | < 100 | 100 to 1000 | 100 to 1000
Cc1cc(F)c(C(=O)N[C@H]2C[C@@H](C(N)=O)C2)cc1NC(=O)c1cnc(N)s1 [Example 127, 2-Amino-N-[5-[(3-carbamoylcyclobutyl)carbamoyl]-4-fluoro-2-methylphenyl]-1,3-thiazole-5-carboxamide] | 100 to 1000 | > 1000 | > 1000 | > 1000
Cc1cc(F)c(C(=O)Nc2ccc(C3(C#N)CC3)nn2)cc1NC(=O)c1cnc(N)s1 [Example 119, 2-Amino-N-[5-[[6-(1-cyanocyclopropyl)pyridazin-3-yl]carbamoyl]-4-fluoro-2-methylphenyl]-1,3-thiazole-5-carboxamide] | < 100 | 100 to 1000 | > 1000 | 100 to 1000
COCc1ccc(NC(=O)c2cc(NC(=O)c3cnc(C)s3)c(Cl)cc2F)nc1 [Example 47, N-[2-chloro-4-fluoro-5-[[5-(methoxymethyl)pyridin-2-yl]carbamoyl]phenyl]-2-methyl-1,3-thiazole-5-carboxamide] | 100 to 1000 | > 1000 | > 1000 | > 1000
Cc1ncc(C(=O)Nc2cc(C(=O)NCc3ccn(C(C)C)n3)c(F)cc2C)s1 [Example 79, N-[4-fluoro-2-methyl-5-[(1-propan-2-ylpyrazol-3-yl)methylcarbamoyl]phenyl]-2-methyl-1,3-thiazole-5-carboxamide] | < 100 | > 1000 | > 1000 | > 1000
Cc1cc(F)c(C(=O)Nc2ccn(C(C)(C)C)n2)cc1NC(=O)c1cnc(N)s1 [Example 141, 2-Amino-N-[5-[(1-tert-butylpyrazol-3-yl)carbamoyl]-4-fluoro-2-methylphenyl]-1,3-thiazole-5-carboxamide] | < 100 | < 100 | < 100 | 100 to 1000
Cc1cc(F)c(C(=O)NC2CN(C(=O)C3CC3)C2)cc1NC(=O)c1cnc(N)s1 [Example 121, 2-Amino-N-[5-[[1-(cyclopropanecarbonyl)azetidin-3-yl]carbamoyl]-4-fluoro-2-methylphenyl]-1,3-thiazole-5-carboxamide] | < 100 | > 1000 | > 1000 | > 1000
Cc1cc(F)c(C(=O)Nc2ncc(C(C)C)s2)cc1NC(=O)c1cnc(N)s1 [Example 146, 2-Amino-N-[4-fluoro-2-methyl-5-[(5-propan-2-yl-1,3-thiazol-2-yl)carbamoyl]phenyl]-1,3-thiazole-5-carboxamide] | < 100 | < 100 | < 100 | < 100
Cc1cc(F)c(C(=O)Nc2ccc(C(C)(C)O)cn2)cc1NC(=O)c1cnc(N)s1 [Example 113, 2-Amino-N-[4-fluoro-5-[[5-(2-hydroxypropan-2-yl)pyridin-2-yl]carbamoyl]-2-methylphenyl]-1,3-thiazole-5-carboxamide] | < 100 | < 100 | 100 to 1000 | 100 to 1000
Cc1cc(F)c(C(=O)Nc2ccc(OC3CC3)cn2)cc1NC(=O)c1cnc(NC(=O)[C@H]2CCOC2)s1 [Example 108, N-[5-[(5-cyclopropyloxypyridin-2-yl)carbamoyl]-4-fluoro-2-methylphenyl]-2-[[(3S)-oxolane-3-carbonyl]amino]-1,3-thiazole-5-carboxamide] | < 100 | > 1000 | > 1000 | > 1000

Further lines, results first:

IC50 (c-Kit) [nM] | IC50 (PDGFRβ) [nM] | IC50 (PDGFRα) [nM] | IC50 (CSF1R) [nM] | Structure (SMILES)
< 100 | 100 to 1000 | > 1000 | 100 to 1000 | Cc1cc(F)c(C(=O)Nc2nc(C3CC3)cs2)cc1NC(=O)c1cnc(N)s1 [Example 170, 2-Amino-N-[5-[(4-cyclopropyl-1,3-thiazol-2-yl)carbamoyl]-4-fluoro-2-methylphenyl]-1,3-thiazole-5-carboxamide]
< 100 | > 1000 | > 1000 | > 1000 | Cc1cc(F)c(C(=O)NCCCN2CCOCC2)cc1NC(=O)c1cnc(N)s1 [Example 164, 2-Amino-N-[4-fluoro-2-methyl-5-(3-morpholin-4-ylpropylcarbamoyl)phenyl]-1,3-thiazole-5-carboxamide]
< 100 | > 1000 | > 1000 | > 1000 | COCCOc1ccc(NC(=O)c2cc(NC(=O)c3cnc(N)s3)c(C)cc2F)nc1 [Example 252, 2-Amino-N-[4-fluoro-5-[[5-(2-methoxyethoxy)pyridin-2-yl]carbamoyl]-2-methylphenyl]-1,3-thiazole-5-carboxamide]
< 100 | < 100 | < 100 | < 100 | Cc1cc(F)c(C(=O)Nc2cc(C(F)(F)F)ccn2)cc1NC(=O)c1cnc(N)s1 [Example 178, 2-Amino-N-[4-fluoro-2-methyl-5-[[4-(trifluoromethyl)pyridin-2-yl]carbamoyl]phenyl]-1,3-thiazole-5-carboxamide]
< 100 | < 100 | 100 to 1000 | < 100 | Cc1cc(F)c(C(=O)Nc2nnc(C3CC3)s2)cc1NC(=O)c1cnc(N)s1 [Example 175, 2-Amino-N-[5-[(5-cyclopropyl-1,3,4-thiadiazol-2-yl)carbamoyl]-4-fluoro-2-methylphenyl]-1,3-thiazole-5-carboxamide]
< 100 | > 1000 | > 1000 | 100 to 1000 | Cc1nnc(NC(=O)c2cc(NC(=O)c3cnc(N)s3)c(C)cc2F)s1 [Example 162, 2-Amino-N-[4-fluoro-2-methyl-5-[(5-methyl-1,3,4-thiadiazol-2-yl)carbamoyl]phenyl]-1,3-thiazole-5-carboxamide]
< 100 | < 100 | < 100 | 100 to 1000 | Cc1cc(F)c(C(=O)Nc2ccc3c(c2)C(C)(C)C(=O)N3)cc1NC(=O)c1cnc(N)s1 [Example 184, 2-Amino-N-[5-[(3,3-dimethyl-2-oxo-1H-indol-5-yl)carbamoyl]-4-fluoro-2-methylphenyl]-1,3-thiazole-5-carboxamide]
< 100 | < 100 | < 100 | < 100 | Cc1cc(F)c(C(=O)Nc2cc(C3CC3)ccn2)cc1NC(=O)c1cnc(N)s1 [Example 190, 2-Amino-N-[5-[(4-cyclopropylpyridin-2-yl)carbamoyl]-4-fluoro-2-methylphenyl]-1,3-thiazole-5-carboxamide]
< 100 | < 100 | < 100 | < 100 | Cc1cc(F)c(C(=O)Nc2ccc3c(c2)C(F)(F)C(=O)N3)cc1NC(=O)c1cnc(N)s1 [Example 188, 2-Amino-N-[5-[(3,3-difluoro-2-oxo-1H-indol-5-yl)carbamoyl]-4-fluoro-2-methylphenyl]-1,3-thiazole-5-carboxamide]
< 100 | > 1000 | > 1000 | > 1000 | Cc1cc(F)c(C(=O)Nc2ccc(CN3CCOCC3)cn2)cc1NC(=O)c1cnc(N)s1 [Example 248, 2-Amino-N-[4-fluoro-2-methyl-5-[[5-(morpholin-4-ylmethyl)pyridin-2-yl]carbamoyl]phenyl]-1,3-thiazole-5-carboxamide]
